Results on 21 compounds are retold here after US10654834B2 (Venenum Biodesign, LLC, priority 2016, dated 2020).

Bounds are passed on as bounds.

Data set [1] deals with T1, human TGR5 receptor (Homo sapiens, UniProt Q8TDU6).
T1 construct: host or cells: CHO-K1 (hTGR5-CHO)
T1 sequence (Q8TDU6 1-330): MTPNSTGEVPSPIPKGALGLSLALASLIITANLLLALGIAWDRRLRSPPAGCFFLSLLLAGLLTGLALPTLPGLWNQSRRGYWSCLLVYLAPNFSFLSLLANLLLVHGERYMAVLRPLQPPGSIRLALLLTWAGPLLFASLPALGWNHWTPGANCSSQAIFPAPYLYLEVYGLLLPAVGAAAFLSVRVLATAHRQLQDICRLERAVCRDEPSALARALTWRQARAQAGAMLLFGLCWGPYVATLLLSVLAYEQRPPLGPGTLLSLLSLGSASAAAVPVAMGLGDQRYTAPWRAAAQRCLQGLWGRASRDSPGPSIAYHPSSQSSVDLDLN
Nature of the data set: Human TGR5 cAMP production assay (hTGR5-CHO cells, DiscoveRx cAMP XS+ kit). Conditions: luminescent cAMP assay, read-out: Human TGR5 Lum. cAMP Activity (EC50). The data set is classed as cell-based. Put shortly:
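EC50 values come from luminescent enzyme-complementation cAMP detection, read after overnight incubation. Beforehand, hTGR5-expressing CHO-K1 cells with IBMX and anti-cAMP antibody were exposed 1 h at room temperature to serially diluted (half-log) compounds.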
In general terms: Changes in cAMP serve as a functional read-out for many G protein-coupled receptors.

The nature of data set [2]: Pharmacokinetic profile in mice after oral gavage. The data set is classed as in vivo, mouse. Conditions: mouse; fasted male Hilltop mice, 10 mg/kg oral gavage, plasma; read-out: Cmax. Put shortly:
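Plasma exposure (Cmax, AUC) by non-compartmental analysis of LC-MS/MS data, orbital blood taken at 0, 0.25, 0.5, 1, 2 and 4 h, each value averaging three mice. Dosing: 10 mg/kg oral gavage to overnight-fasted male Hilltop mice (8 weeks), vehicle PEG400/CMC/Tween-80.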

As usually defined, the EC50 is the concentration needed to bring the measured effect to its halfway point. In general, Cmax refers to the highest concentration seen after dosing. For the compound `N#Cc1ccc(CCNC(=O)[C@@H]2CCCN2c2cc(-c3ccc(CCC(=O)NCS(=O)(=O)O)cc3)cc(C(F)(F)F)n2)cc1` [Compound 206, (S)-(3-(4-(2-(2-((4-cyanophenethyl)carbamoyl)pyrrolidin-1-yl)-6-(trifluoromethyl)pyridin-4-yl)phenyl)propanamido)methanesulfonic acid], the EC50 in data set [1] was below 100 nM. In addition, the Cmax in data set [2] was 3.8 ng/mL.

Take `N#Cc1ccc(CCNC(=O)[C@@H]2CCN2c2cc(N3CCC(CO)CC3)nc(C(F)(F)F)n2)cc1` [Compound 219, (S)—N-(4-cyanophenethyl)-1-(6-(4-(hydroxymethyl)piperidin-1-yl)-2-(trifluoromethyl)pyrimidin-4-yl)azetidine-2-carboxamide]: in data set [1], the EC50 was below 100 nM. Also, the Cmax in data set [2] is 75 ng/mL.

Regarding `N#Cc1ccc(CCNC(=O)[C@@H]2CCN2c2cc(N3CCC(CCO)CC3)nc(C(F)(F)F)n2)cc1` [Compound 223, (S)-N-(4-cyanophenethyl)-1-(6-(4-(2-hydroxyethyl)piperidin-1-yl)-2-(trifluoromethyl)pyrimidin-4-yl)azetidine-2-carboxamide], the EC50 in data set [1] is below 100 nM. In data set [2], the Cmax was found to be 44 ng/mL.

In the case of `N#Cc1ccc(CCNC(=O)[C@@H]2CCN2c2cc(N3CCC(CCCC(=O)O)CC3)nc(C(F)(F)F)n2)cc1` [Compound 231, (S)-4-(1-(6-(2-((4-cyanophenethyl)carbamoyl)azetidin-1-yl)-2-(trifluoromethyl)pyrimidin-4-yl)piperidin-4-yl)butanoic acid], in data set [1], the EC50 is below 100 nM. Moreover, the Cmax in data set [2] turned out to be 28 ng/mL.

For `O=C(O)CCC1CCN(c2cc(N3CC[C@H]3C(=O)NCCc3ccc(C(F)(F)F)cc3)nc(C(F)(F)F)n2)CC1` [Compound 232, (S)-3-(1-(2-(trifluoromethyl)-6-(2-((4-(trifluoromethyl)phenethyl)carbamoyl)azetidin-1-yl)pyrimidin-4-yl)piperidin-4-yl)propanoic acid], the EC50 in data set [1] is below 100 nM. In addition, in data set [2], the Cmax was 64 ng/mL.

With `COc1cc(C(F)(F)F)ccc1CCNC(=O)[C@@H]1CCN1c1cc(N2CCC(CCC(=O)O)CC2)nc(C(F)(F)F)n1` [Compound 239, (S)-3-(1-(6-(2-((2-methoxy-4-(trifluoromethyl)phenethyl)carbamoyl)azetidin-1-yl)-2-(trifluoromethyl)pyrimidin-4-yl)piperidin-4-yl)propanoic acid], the EC50 in data set [1] was below 100 nM. Also, the Cmax in data set [2] came to 53 ng/mL.

`N#Cc1ccc(CCNC(=O)[C@@H]2CCN2c2cc(N3CCC(CCCC(=O)NCCS(=O)(=O)O)CC3)nc(C(F)(F)F)n2)cc1` [Compound 249, (S)-2-(4-(1-(6-(2-((4-cyanophenethyl)carbamoyl)azetidin-1-yl)-2-(trifluoromethyl)pyrimidin-4-yl)piperidin-4-yl)butanamido)ethanesulfonic acid]: the EC50 in data set [1] is below 100 nM. For the same compound, the Cmax in data set [2] came out at 3.4 ng/mL.

As for `N#Cc1ccc(CCNC(=O)[C@@H]2CCN2c2cc(N3CCC(CCCC(=O)NCS(=O)(=O)O)CC3)nc(C(F)(F)F)n2)cc1` [Compound 250, (S)-(4-(1-(6-(2-((4-cyanophenethyl)carbamoyl)azetidin-1-yl)-2-(trifluoromethyl)pyrimidin-4-yl)piperidin-4-yl)butanamido)methanesulfonic acid], in data set [1], the EC50 is below 100 nM. In data set [2], the Cmax worked out at 7.6 ng/mL.

As for `O=C(CCC1CCN(c2cc(N3CC[C@H]3C(=O)NCCc3ccc(C(F)(F)F)cc3)nc(C(F)(F)F)n2)CC1)NCS(=O)(=O)O` [Compound 253, (S)-(3-(1-(2-(trifluoromethyl)-6-(2-((4-(trifluoromethyl)phenethyl)-carbamoyl)azetidin-1-yl)pyrimidin-4-yl)piperidin-4-yl)propanamido)-methanesulfonic acid], in data set [1], the EC50 is below 100 nM. In addition, the Cmax in data set [2] stood at 48 ng/mL.

With `COc1cc(C(F)(F)F)ccc1CCNC(=O)[C@@H]1CCN1c1cc(N2CCC(CCC(=O)NCCS(=O)(=O)O)CC2)nc(C(F)(F)F)n1` [Compound 259], the EC50 in data set [1] is below 100 nM. In addition, the Cmax in data set [2] amounted to 27 ng/mL.

For `N#Cc1ccc(CCNC(=O)[C@@H]2CCN2c2cc(N3CCC(CCCC(=O)NC[C@@H](O)[C@H](O)[C@@H](O)[C@@H](O)CO)CC3)nc(C(F)(F)F)n2)cc1` [Compound 260, (S)—N-(4-cyanophenethyl)-1-(6-(4-(4-oxo-4-(((2R,3S,4S,5S)-2,3,4,5,6-pentahydroxyhexyl)amino)butyl)piperidin-1-yl)-2-(trifluoromethyl)pyrimidin-4-yl)azetidine-2-carboxamide], the EC50 in data set [1] is below 100 nM. Moreover, the Cmax in data set [2] worked out at 3.2 ng/mL.

As for `N#Cc1ccc(CCNC(=O)[C@@H]2CCN2c2cc(N3CCC(CCCC(=O)NC[C@@H](O)CO)CC3)nc(C(F)(F)F)n2)cc1` [Compound 261, (S)-N-(4-cyanophenethyl)-1-(6-(4-(4-(((R)-2,3-dihydroxypropyl)amino)-4-oxobutyl)piperidin-1-yl)-2-(trifluoromethyl)pyrimidin-4-yl)azetidine-2-carboxamide], the EC50 in data set [1] was below 100 nM. The Cmax in data set [2] is 48 ng/mL.

Consider `N#Cc1ccc(CCNC(=O)[C@@H]2CCN2c2cc(N3CCC(CCNC(=O)NCCC(=O)O)CC3)nc(C(F)(F)F)n2)cc1` [Compound 268, (S)-3-(3-(2-(1-(6-(2-((4-cyanophenethyl)carbamoyl)azetidin-1-yl)-2-(trifluoromethyl)pyrimidin-4-yl)piperidin-4-yl)ethyl)ureido)propanoic acid], for which the EC50 in data set [1] is below 100 nM. In addition, the Cmax in data set [2] turned out to be 7.7 ng/mL.

`N#Cc1ccc(CCNC(=O)[C@@H]2CCN2c2cc(N3CCC(CCNC(=O)NCCS(N)(=O)=O)CC3)nc(C(F)(F)F)n2)cc1` [Compound 269, (S)—N-(4-cyanophenethyl)-1-(6-(4-(2-(3-(2-sulfamoylethyl)ureido)ethyl)piperidin-1-yl)-2-(trifluoromethyl)pyrimidin-4-yl)azetidine-2-carboxamide]: in data set [1], the EC50 is below 100 nM. The Cmax in data set [2] turned out to be 3.2 ng/mL.

Consider `N#Cc1ccc(CCNC(=O)[C@@H]2CCN2c2cc(N3CCC(CCNC(=O)NCS(=O)(=O)O)CC3)nc(C(F)(F)F)n2)cc1` [Compound 270, (S)-(3-(2-(1-(6-(2-((4-cyanophenethyl)carbamoyl)azetidin-1-yl)-2-(trifluoromethyl)pyrimidin-4-yl)piperidin-4-yl)ethyl)ureido)-methanesulfonic acid], for which the EC50 in data set [1] was below 100 nM. In addition, the Cmax in data set [2] is 5.4 ng/mL.

For the compound `N#Cc1ccc(CCNC(=O)[C@@H]2CCN2c2cc(N3CCC(CCNC(=O)NCCS(=O)(=O)O)CC3)nc(C(F)(F)F)n2)cc1` [Compound 271, (S)-2-(3-(2-(1-(6-(2-((4-cyanophenethyl)carbamoyl)azetidin-1-yl)-2-(trifluoromethyl)pyrimidin-4-yl)piperidin-4-yl)ethyl)ureido)-ethanesulfonic acid], the EC50 in data set [1] is below 100 nM. For the same compound, in data set [2], the Cmax is below 1 ng/mL.

Regarding `N[C@@H](CS(=O)(=O)O)C(=O)NCCC1CCN(c2cc(N3CC[C@H]3C(=O)NCCc3ccc(C(F)(F)F)cc3)nc(C(F)(F)F)n2)CC1` [Compound 278, (R)-2-amino-3-oxo-3-((2-(1-(2-(trifluoromethyl)-6-((S)-2-((4-(trifluoromethyl)-phenethyl)carbamoyl)azetidin-1-yl)pyrimidin-4-yl)piperidin-4-yl)ethyl)amino)-propane-1-sulfonic acid], the EC50 in data set [1] is below 100 nM. Further, the highest concentration (Cmax) in data set [2] came to 3.7 ng/mL.

Take `N#Cc1ccc(CCNC(=O)[C@@H]2CCN2c2cc(N3CCC(CCCC(=O)NCCNC(=N)N)CC3)nc(C(F)(F)F)n2)cc1` [Compound 282, (S)—N-(4-cyanophenethyl)-1-(6-(4-(4-((2-guanidinoethyl)amino)-4-oxobutyl)piperidin-1-yl)-2-(trifluoromethyl)pyrimidin-4-yl)azetidine-2-carboxamide]: the EC50 in data set [1] was below 100 nM. The Cmax in data set [2] amounted to 4.2 ng/mL.

In the case of `N#Cc1ccc(CCNC(=O)[C@@H]2CCN2c2cc(N3CCC(CCCC(=O)NCCCCNC(=N)N)CC3)nc(C(F)(F)F)n2)cc1` [Compound 283, (S)-N-(4-cyanophenethyl)-1-(6-(4-(4-((4-guanidinobutyl)amino)-4-oxobutyl)piperidin-1-yl)-2-(trifluoromethyl)pyrimidin-4-yl)azetidine-2-carboxamide], the EC50 in data set [1] is below 100 nM. Besides, the Cmax in data set [2] is 2.7 ng/mL.

Regarding `N#Cc1ccc(CCNC(=O)[C@@H]2CCN2c2cc(N3CCC(CCCC(=O)NCCOCCNC(=N)N)CC3)nc(C(F)(F)F)n2)cc1` [Compound 284, (S)-N-(4-cyanophenethyl)-1-(6-(4-(4-((2-(2-guanidinoethoxy)-ethyl)amino)-4-oxobutyl)piperidin-1-yl)-2-(trifluoromethyl)pyrimidin-4-yl)azetidine-2-carboxamide], in data set [1], the EC50 is below 100 nM. Further, the Cmax in data set [2] worked out at 13 ng/mL.

Take `N#Cc1ccc(CCNC(=O)[C@@H]2CCN2c2cc(N3CCC(CCNC(=N)N)CC3)nc(C(F)(F)F)n2)cc1` [Compound 285, (S)-N-(4-cyanophenethyl)-1-(6-(4-(2-guanidinoethyl)piperidin-1-yl)-2-(trifluoromethyl)pyrimidin-4-yl)azetidine-2-carboxamide]: the EC50 in data set [1] was below 100 nM. Further, the Cmax in data set [2] turned out to be 0.9 ng/mL.
